Consider 1 compound from PMC9246869, “Allosteric inhibition of PPM1D serine/threonine phosphatase via an altered conformational state” (Nature Communications, 2022).

The target of this assay is T1, PPM1DΔhinge (Homo sapiens, UniProt O15297, DEL155-163/G166S/M164G/T165G).
T1 construct: PPM1D1–154-GGS-167–420 (PPM1D∆hinge); His(6)-SUMO (N, cleaved yes); made in house; host or cells: E. coli BL21 (DE3)
T1 sequence (O15297 with tags, fused parts or gaps DEL155-163/M164G/T165G/G166S): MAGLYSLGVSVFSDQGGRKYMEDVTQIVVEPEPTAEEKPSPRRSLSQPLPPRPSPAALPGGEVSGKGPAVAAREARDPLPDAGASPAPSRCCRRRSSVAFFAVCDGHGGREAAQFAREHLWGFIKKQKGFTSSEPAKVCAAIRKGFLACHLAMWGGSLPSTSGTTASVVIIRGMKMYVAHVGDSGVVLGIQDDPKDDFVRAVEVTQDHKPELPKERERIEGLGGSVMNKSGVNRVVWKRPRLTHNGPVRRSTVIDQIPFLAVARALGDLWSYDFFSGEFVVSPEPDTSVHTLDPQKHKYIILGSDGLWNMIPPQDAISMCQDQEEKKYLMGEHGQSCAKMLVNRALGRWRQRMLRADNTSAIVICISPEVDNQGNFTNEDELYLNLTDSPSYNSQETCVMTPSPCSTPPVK
As to the kind of experiment: p38 MAPK enzymatic assay (LC/MS, dephosphorylation of T180). The class given is biochemical. Conditions: for P38 Assay, signal relative to 0 nM GSK (=100): PPM1DΔHinge, individual runs, listed as GSK. On the procedure: To generate the double phosphorylated form of p38 MAPK for the LC/MS enzymatic PPM1D assay, 20 µM p38 MAPK was incubated with 100 nM MKK6 in 50 mM HEPES pH 7.4, 10 mM ATP, 40 mM MgCl2, and 100 µM TCEP at RT for 2 h. The reaction mixture was diluted 2-fold with 20 mM HEPES pH 7.4, 300 mM NaCl, 100 µM TCEP, and 1 mM MgCl2 and passed over a Superdex 200 26/600 column equilibrated with 20 mM HEPES pH 7.4, 150 mM NaCl, 100 µM TCEP, and 1 mM MgCl2 to remove excess ATP and MKK6 from the phosphorylated p38 MAPK (p38PP) protein. The protein was concentrated and stored in aliquots for single time usage at −80 °C.
The enzymatic activity of the PPM1D constructs was measured by quantifying the dephosphorylation of the substrate protein p38PP by LC/MS. Assays were run in 384-well plates (Axygen; #P-384-120SQ-C) in a final volume of 80 µL per well. The buffer consisted of 20 mM HEPES, 20 mM NaCl, 20 mM MgCl2 and 0.1 mM TCEP, at a pH of 7.5. The reaction was initiated by addition of the p38PP substrate to a solution containing 10 nM PPM1D to a final concentration of 300 nM for p38PP. The plate was then incubated at room temperature and the reaction quenched after 15 min increments with formic acid to a final concentration of 6% (v/v) up to 120 min. For IC50 measurements, the GSK2830371 compound was pre-incubated with the PPM1D constructs in a 2% DMSO-containing buffer for 10 min prior to the addition of the substrate and the reactions were quenched after 2 h. In both experiments, BSA was added to a final concentration of 0.2 µM during the quench step as a carrier protein and injection control for the LC/MS. The plate was then sealed and spun down at 1500 × g for 1 min prior to LC/MS analysis. Plates were analyzed within the same day of the quench step.
Substrate and product detection was achieved by multiple-reaction monitoring (MRM) using a Waters Acquity UPLC chromatography system connected to an Xevo TQ-XS mass spectrometer (Waters, Milford, MA). Source parameters were set as follows: polarity ES+, capillary 2.0 kV, cone voltage, 50 V; collision energy, 5 V; cone gas flow, 200 L/h; collision gas flow, 0.16 mL/min; source temperature, 150 °C; desolvation temperature, 500 °C; and desolvation gas flow, 800 L/h. Analytes were separated using an Agilent PLRP-S Reversed-Phase column (5 µm; 2.1 × 50 mm, 300 Å Agilent Technologies, Santa Clara, CA) at 60 °C. Sample storage temperature was set to 15 °C. Mobile phases consisted of 0.1% (v/v) formic acid (Millipore EMSURE) in LC/MS grade water (JTBaker) and 0.1% v/v formic acid in acetonitrile (Honeywell). Initial column conditions were set to […]. Proteins were eluted using a 1.5 min gradient of 5–98% acetonitrile at 0.4 ml/min. MassLynx and TargetLynx software (Waters, version 4.2) were used for sample acquisition and data analysis, respectively. Analytes were quantified by integration of peak areas under the curve using the transitions 941.10 to 941.05 m/z for P38PP (substrate) and 939.10 to 939.09 m/z for P38P (product). Areas were normalized for instrumental variation by dividing by the BSA peak area (1209.23 to 1209.2 m/z transition) measured in the same well.

Structures are written as SMILES. Where “and” joins values, the source holds several entries; their conditions need not be identical. Equal values may be shown once.

As to `Cc1ncc(Cl)cc1NCc1ccc(C(=O)N[C@@H](CC2CCCC2)C(=O)NC2CC2)s1` [GSK2830371], the “increase of IC50 in p38 MAPK assay upon hinge deletion” value (PPM1DΔhinge versus PPM1D1–420) stood at 100 fold. Besides, the “P38 Assay, signal relative to 0 nM GSK (=100)” value by setting is: ([GSK] 1.953 nM) 100.358 and 104.09 and 99.8488; ([GSK] 3.906 nM) 98.4717 and 98.7741 and 94.5709; ([GSK] 7.813 nM) 97.8741 and 98.6995 and 87.7716; ([GSK] 15.625 nM) 91.5216 and 88.9322 and 63.2104; ([GSK] 31.25 nM) 84.0592 and 89.4059 and 56.2735; ([GSK] 62.5 nM) 71.608 and 76.249 and 61.6546. The “P38 Assay, signal relative to 0 nM GSK (=100)” value was 62.6262 and 54.2715 and 52.5307 ([GSK] 125 nM); 49.6072 and 48.4313 and 45.7898 ([GSK] 250 nM); 38.0355 and 40.9669 and 36.3652 ([GSK] 500 nM); 32.2867 and 33.3807 and 27.8112 ([GSK] 1000 nM).
